PMC1470342 (Environmental Health Perspectives, 1997)

How the values were obtained:
[1] = target: T1, Gal4-human ER chimera (Gal4-HEGO) (Homo sapiens, UniProt P03372); test: Recombinant receptor/reporter gene assay; type: cell-based
T1 sequence (P03372 311-547 limits assumed): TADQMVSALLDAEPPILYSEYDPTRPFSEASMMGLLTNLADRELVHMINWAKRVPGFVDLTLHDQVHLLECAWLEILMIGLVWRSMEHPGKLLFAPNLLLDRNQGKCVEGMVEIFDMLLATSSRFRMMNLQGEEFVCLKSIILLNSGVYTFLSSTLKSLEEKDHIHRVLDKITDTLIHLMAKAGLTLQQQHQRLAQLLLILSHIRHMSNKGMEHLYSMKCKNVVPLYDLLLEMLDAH

ovariectomized CD-1 mice [2] = test: Vaginal cell cornification assay; type: in vivo, mouse; conditions: 202, 16 and 1.7 mg/kg
ovariectomized CD-1 mice [3] = test: Mouse uterotrophic assay; type: in vivo; conditions: 202 mg/kg, p < 0.0002
MCF-7 cells = test: GC-MS analysis of media from PCB 104-treated transfected MCF-7 cells; conditions: MCF-7 cells incubated with PCB 104 for 8, 24, 48 hr; SIM GC-MS
[4] = co-treatment 1 nM E2 plus 0.1, 1, 10 pM (printed)

| SMILES | effect on E2-induced luciferase activity compared to E2 alone ([1]; co-treatment 1 nM E2 plus 10 pM (printed; 10 microM in abstract)) | vaginal cell cornification, dose response (ovariectomized CD-1 mice [2]) | effect on E2-induced luciferase activity compared to E2 alone [1, 4] | uterine wet weight versus vehicle control (ovariectomized CD-1 mice [3]) | presence of metabolite HO-PCB 104 or hydroxylated isomers in media extracts (MCF-7 cells) | estrogenic activity in reporter gene assay ([1]; alone, 24 hr) |
| --- | --- | --- | --- | --- | --- | --- |
| Oc1cc(Cl)c(-c2c(Cl)cc(Cl)cc2Cl)c(Cl)c1 [HO-PCB 104, 2,4,6,2',6'-pentachloro-4-biphenylol] | additivity | – | – | – | – | – |
| Clc1cc(Cl)c(-c2c(Cl)cccc2Cl)c(Cl)c1 [PCB 104, 2,4,6,2',6'-pentachlorobiphenyl] | – | induced vaginal epithelial cell cornification | no effect | increased uterine wet weight | failed to detect | – |
| Clc1cc(Cl)c(-c2c(Cl)cc(Cl)cc2Cl)c(Cl)c1 [PCB 155, 2,4,6,2',4',6'-hexachlorobiphenyl] | – | – | significant antiestrogenic activity | – | – | minimal |
